Tests used:
Burkholderia glumae [1] = assay: Test Example 6: onset of infection on rice, test liquid sprayed after infection; assay type: in vivo; conditions: for percentage of flower clusters with score 0: score 0 = less than 0.1% diseased; for percentage of flower clusters with score 0 / percentage of flower clusters with score 1 / percentage of flower clusters with score 2 / percentage of flower clusters with score 3 / percentage of flower clusters with score 4 / percentage of flower clusters with score 5: rice, 7 days; for percentage of flower clusters with score 1: score 1 = 0.1-20% diseased; for percentage of flower clusters with score 2: score 2 = 20-40% diseased; for percentage of flower clusters with score 3: score 3 = 40-60% diseased; for percentage of flower clusters with score 4: score 4 = 60-80% diseased; for percentage of flower clusters with score 5: score 5 = 80-100% diseased
Procedure: A test liquid and a culture solution for infection were prepared in the same manner as in Test Example 5, and the culture solution for infection was sprayed onto Korean rice (Milyang 23) raised in a hothouse until the flowering stage. One hour after the spraying, each test liquid (10 mL) was sprayed onto the rice. After cultivation for seven days, the onset of Burkholderia glumae infection on the rice was evaluated in the same manner as in Test Example 4. The same evaluation was conducted as the comparative test in the same manner except that water was used instead of the test liquid. Further, the same evaluation was conducted to serve as a blank using water instead of both the test liquid and the culture solution for infection.

Burkholderia glumae [2] = assay: Test Example 4: amount of toxoflavin produced in culture solution; assay type: cell-based; conditions: 0, 20, 40, 60, 80 or 100 μM, shake culturing 20 hours, FIG. 3
Procedure: Burkholderia glumae was inoculated into an LB culture medium, and cultured at 37° C. overnight. The thus-obtained culture solution was subjected to bacterial collection using a centrifuge, and washed with an LB culture medium twice using a fresh LB culture medium each time. To the bacterial cell a fresh LB culture medium was added, and then Compound (1) produced in Production Example 1 was added thereto in such a manner that its final concentration became a predetermined value (i.e., 0, 20, 40, 60, 80 or 100 μM), followed by shake culturing for 20 hours. The amount of toxoflavin produced by the bacterial cell in the culture solution was obtained by the following procedure.
Each culture solution was filtered by 0.22-μm membrane filter, and 1 mL of the filtrate was isolated. One mL of chloroform was added to the filtrate, followed by extraction. The thus-obtained chloroform layer was concentrated under reduced pressure, and an 80% (V/V) an aqueous methanol solution was added to and dissolved in the residue. The absorbance (at 260 nm) of the solution was measured, and the toxin doses were calculated from the calibration curve, which was obtained using a chemically synthesized standard toxin.

Burkholderia glumae [3] = assay: Test Example 1: production of QS signal molecules C6-HSL and C8-HSL (TLC, CV026 violacein detection); assay type: cell-based
Procedure: Burkholderia glumae was inoculated into an LB culture medium (produced by BD) (Difco LB Broth: containing tryptone (10.0 g), yeast extract (5.0 g), and sodium chloride (10.0 g)), and cultured at 37° C. overnight. The thus-cultured broth was subjected to bacterial collection using a centrifuge, washed with an LB culture medium twice using a fresh LB culture medium each time. […] Each of the broths was filtered by a membrane filter (0.22 μm). 0.5 mL of ethyl acetate was added to 0.5 mL of supernate from which bacteria were removed, and then the quorum sensing (QS) signal molecules were extracted using ethyl acetate. The thus-obtained ethyl acetate layer was concentrated under reduced pressure, and the residue was re-dissolved in 20 μL of methanol, producing a test liquid.
The test liquid (1 μL) was spotted on TLC to separate C6-HSL and C8-HSL, which are QS signal molecules, under the condition of developing solvent: methanol/water=70/30. After the development, a TLC plate was well dried and a culture solution containing QS signal molecule detection bacteria (Chromobacterium violaceum CV026 strain) that had been pre-cultured in an LB culture medium and agar was applied to the TLC plate, followed by the detection of C6-HSL and C8-HSL. Chromobacterium violaceum is known as a bacterium that produces purple pigment (violacein) using the QS; therefore, the CV026 strain can be used to detect QS signal molecules (Microbiology, (1997), 143, 3703-3711, (2004), 54(4), 921-934, (2007), 64(1), 165-179). After applying the detected bacteria to the TLC plate, the TLC plate was subjected to overnight cultivation at 28° C. and then detection using violacein. For quantitative determination, calibration curves showing the violacein production from C6-HSL and C8-HSL that had been chemically synthesized were obtained. From the calibration curves, the production amounts of the QS signal molecules of each compound were obtained.

Burkholderia glumae [4] = assay: Test Example 5: onset of infection on rice, test liquid sprayed before infection; assay type: in vivo; conditions: for percentage of flower clusters with score 0: score 0 = less than 0.1% diseased; for percentage of flower clusters with score 0 / percentage of flower clusters with score 1 / percentage of flower clusters with score 2 / percentage of flower clusters with score 3 / percentage of flower clusters with score 4 / percentage of flower clusters with score 5: rice, 7 days; for percentage of flower clusters with score 1: score 1 = 0.1-20% diseased; for percentage of flower clusters with score 2: score 2 = 20-40% diseased; for percentage of flower clusters with score 3: score 3 = 40-60% diseased; for percentage of flower clusters with score 4: score 4 = 60-80% diseased; for percentage of flower clusters with score 5: score 5 = 80-100% diseased
Procedure: A dimethyl formamide solution (1,000 ppm) of Compound (1) was diluted with water to have a predetermined concentration (50, 100 or 200 μM) to prepare a test liquid. In a separate procedure, Burkholderia glumae were seeded to an LB culture medium and cultured overnight at 37° C., preparing a culture solution for infection.
Each test liquid (10 mL) was sprayed onto Korean rice (Milyang 23) raised in a hothouse until the flowering stage. The culture solution for infection was sprayed onto the rice one hour after the application of the test liquid. After cultivation for seven days, the onset of Burkholderia glumae infection on the rice was evaluated.
The evaluation was conducted by picking an ear from each plant, making a total of three ears. In each flower cluster (grain), the percentage of the portion that suffered from the onset of disease (i.e., the portion that turned brown) caused by the toxoflavin produced by Burkholderia glumae was visually observed and scored based on the scale shown below. The percentage of the total flower clusters was obtained and scored to indicate the onset of the disease.
The percentage that suffered from the onset of disease:
Not less than 0.1% and not greater than 20%: 1
Not less than 20% and not greater than 40%: 2
Not less than 40% and not greater than 60%: 3
Not less than 60% and not greater than 80%: 4
In this evaluation, three flower clusters (grains) having the same conditions were prepared, and reproducibility was confirmed by repeating the same evaluation three times. The same evaluation was also conducted as a comparative test except that water was used instead of the test liquid. Further, the same evaluation was conducted to serve as a blank except that water was used instead of both the test liquid and the culture solution for infection.

[5] = 50 μM sprayed 1 h after infection
[6] = 100 μM sprayed 1 h after infection
[7] = 200 μM sprayed 1 h after infection
[8] = 40 μM compound, 12 hours shake culturing
[9] = 40 μM compound, 24 hours shake culturing
[10] = 60 μM compound, 12 hours shake culturing
[11] = 60 μM compound, 24 hours shake culturing
[12] = 50 μM sprayed 1 h before infection
[13] = 100 μM sprayed 1 h before infection
[14] = 200 μM sprayed 1 h before infection

Compound: CCCc1cc(=O)n2cccc(O)c2n1 [Compound (1), 2-n-propyl-9-hydroxy-4H-pyrid[1,2-a]pyrimidin-4-one]
- percentage of flower clusters with score 0 (Burkholderia glumae [1]; [5]): 88%
- percentage of flower clusters with score 0 (Burkholderia glumae [1]; [6]): 85%
- percentage of flower clusters with score 0 (Burkholderia glumae [1]; [7]): 89%
- percentage of flower clusters with score 1 (Burkholderia glumae [1]; [5]): 2%
- percentage of flower clusters with score 1 (Burkholderia glumae [1]; [6]): 5%
- percentage of flower clusters with score 1 (Burkholderia glumae [1]; [7]): 3%
- percentage of flower clusters with score 2 (Burkholderia glumae [1]; [5]): 4%
- percentage of flower clusters with score 2 (Burkholderia glumae [1]; [6]): 3%
- percentage of flower clusters with score 2 (Burkholderia glumae [1]; [7]): 3%
- percentage of flower clusters with score 3 (Burkholderia glumae [1]; [5]): 2%
- percentage of flower clusters with score 3 (Burkholderia glumae [1]; [6]): 3%
- percentage of flower clusters with score 3 (Burkholderia glumae [1]; [7]): 2%
- percentage of flower clusters with score 4 (Burkholderia glumae [1]; [5]): 2%
- percentage of flower clusters with score 4 (Burkholderia glumae [1]; [6]): 2%
- percentage of flower clusters with score 4 (Burkholderia glumae [1]; [7]): 2%
- percentage of flower clusters with score 5 (Burkholderia glumae [1]; [5]): 2%
- percentage of flower clusters with score 5 (Burkholderia glumae [1]; [6]): 2%
- percentage of flower clusters with score 5 (Burkholderia glumae [1]; [7]): 1%
- onset of Burkholderia glumae on rice (Burkholderia glumae [1]; test liquid 50, 100 or 200 μM sprayed after the culture solution for infection): prevented
- toxin doses produced by bacteria (toxoflavin) (Burkholderia glumae [2]): remarkably decreased
- C6-HSL (Burkholderia glumae [3]; [8]): 163 ng/mL
- C8-HSL (Burkholderia glumae [3]; [8]): 14 µg/mL
- C6-HSL (Burkholderia glumae [3]; [9]): 0 ng/mL
- C8-HSL (Burkholderia glumae [3]; [9]): 0 µg/mL
- C6-HSL (Burkholderia glumae [3]; [10]): 167 ng/mL
- C8-HSL (Burkholderia glumae [3]; [10]): 13 µg/mL
- C6-HSL (Burkholderia glumae [3]; [11]): 0 ng/mL
- C8-HSL (Burkholderia glumae [3]; [11]): 0 µg/mL
- percentage of flower clusters with score 0 (Burkholderia glumae [4]; [12]): 68%
- percentage of flower clusters with score 0 (Burkholderia glumae [4]; [13]): 80%
- percentage of flower clusters with score 0 (Burkholderia glumae [4]; [14]): 82%
- percentage of flower clusters with score 1 (Burkholderia glumae [4]; [12]): 7%
- percentage of flower clusters with score 1 (Burkholderia glumae [4]; [13]): 6%
- percentage of flower clusters with score 1 (Burkholderia glumae [4]; [14]): 6%
- percentage of flower clusters with score 2 (Burkholderia glumae [4]; [12]): 6%
- percentage of flower clusters with score 2 (Burkholderia glumae [4]; [13]): 4%
- percentage of flower clusters with score 2 (Burkholderia glumae [4]; [14]): 6%
- percentage of flower clusters with score 3 (Burkholderia glumae [4]; [12]): 7%
- percentage of flower clusters with score 3 (Burkholderia glumae [4]; [13]): 3%
- percentage of flower clusters with score 3 (Burkholderia glumae [4]; [14]): 2%
- percentage of flower clusters with score 4 (Burkholderia glumae [4]; [12]): 6%
- percentage of flower clusters with score 4 (Burkholderia glumae [4]; [13]): 3%
- percentage of flower clusters with score 4 (Burkholderia glumae [4]; [14]): 2%
- percentage of flower clusters with score 5 (Burkholderia glumae [4]; [12]): 6%
- percentage of flower clusters with score 5 (Burkholderia glumae [4]; [13]): 4%
- percentage of flower clusters with score 5 (Burkholderia glumae [4]; [14]): 2%
- onset of Burkholderia glumae on rice (Burkholderia glumae [4]; test liquid 50, 100 or 200 μM sprayed before the culture solution for infection): prevented

From patent publication US8507674B2, “Quorum sensing inhibitor” (The University of Tokyo, priority 2007, dated 2013)
